Assay results: patent US20130324543A1, “REVERSAL OF HIGH BREAST CANCER RISK IN MAMMALS EXPOSED TO ESTROGENIC CHEMICALS IN UTERO BY ADULT EXPOSURE TO HDAC AND DNMT INHIBITORS” (Georgetown University, priority 2012, published 2013)

Legend:
mammary gland = assay: Mammary gland morphology of in utero exposed mice (whole mounts); type: in vivo, C57BL/6 mice; settings: female mice, PND 27
Description: One of the two #4 abdominal mammary glands was dissected and fixed in Carnoy's fixative and processed into whole mounts as previously described (8). The other #4 abdominal gland was snap frozen in liquid nitrogen and stored in −80° C. for future analysis. One of the two thoracic #2-3 mammary glands was fixed in neutral buffered 10% formalin, embedded in paraffin and processed for histology using routine methods, and the other was snap frozen in liquid nitrogen, also stored in −80° C. for future analysis. Uterus was dissected, and one horn with the ovary and vagina attached was fixed in 10% formalin, embedded in paraffin and processed for histology, and the other horn and one ovary were frozen in liquid nitrogen and stored in −80° C.
To assess possible changes in mammary gland morphology, whole amounts of the 4th abdominal glands obtained on PND 27 were processed as previously described (4, 72). The total number of terminal end buds (TEBs) was counted. Identification of TEBs was based on the guidelines established by Russo and Russo (64). The total area (in pixels) of epithelium of the peripubertal (PND 27) mammary glands was analyzed by using ImageJ software (available through NIH web site) on digitized pictures of mammary whole mounts with ducts manually intensified black against white background (shown as an insert in FIG. 16). Ductal elongation (mammary epithelial outgrowth) on PND 50 was measured as the growth in millimeters from the end of the lymph node to the end of the epithelial tree. All the analyses were done blindly using an Olympus dissecting microscope.

[1] = Immediate adverse effects of dietary exposure in adult non-pregnant littermates of dams; type: in vivo, mice; settings: last day of dietary exposure, data not shown
Description: For ethical reasons non-pregnant littermate females were used for blood collection instead of the dams, and the samples were taken on the last day of their dietary exposure. Blood was collected by heart puncture of anesthetized mice prior to euthanasia, and serum was separated by centrifugation (1000×g for 10 min) and stored frozen until hormone measurements.
In addition, possible immediate adverse effects of EE2, BPA and GEN exposure for adult mice were evaluated using the non-pregnant littermates of dams. Their body weights were recorded and the mammary gland morphology examined on the last day of their dietary exposure.

CYP1B1 = CYP1B1 expression (qRT-PCR) in mammary glands of F1-F3 rat offspring; type: in vivo, Sprague Dawley rats
Description: Mammary gland tissue obtained from 50-day-old F1-F3 generation offspring (n=5-6 per group per generation) were used. 1 μg of total RNA per sample was used as a template for random primed cDNA synthesis. The cDNA samples were used as templates for qRT-PCR analysis with specific primers for the target gene, rat CYP1B1 using QuantiTect SYBR green PCR kit (Qiagen Inc., Valencia, Calif.) and an ABI Prism 7900 Sequence Detection System. Each sample was run in triplicate. Absolute gene expression levels were determined using Applied Biosystems' SDS2.3 software and the standard curve method. Concentration of each sample was normalized to the reference gene 18S rRNA.

mammary glands = assay: Cell proliferation (Ki-67 immunohistochemistry) in PND50 mammary glands; type: in vivo, Sprague Dawley rats
Description: To determine whether the increase in DNA adduct formation may reflect increased cell proliferation, expression of Ki-67, a marker of cell proliferation, was assessed on PND50 mammary glands using immunohistochemistry. The ki-67 status of each sample was evaluated according to a modified version of the scoring system proposed by Allred et al. The total score for each sample was calculated as the sum of the estimated proportion of positive-staining cells ([…]) plus the estimated intensity of positive-staining cells (0-4).

miRNAs = assay: miRNA expression in adult mammary glands of in utero exposed rats; type: in vivo
Description: Since several miRNAs are known to be suppressed by E2 in MCF-7 human breast cancer cells (Maillot et al. Cancer Res 2009), we determined whether persistent changes in miRNA expression may be seen in the adult mammary glands of rats exposed to E2 in utero. miRNAs were measured using applied Biosystems TaqManR Array Rodent MicroRNA.

C#C[C@]1(O)CC[C@H]2[C@@H]3CCc4cc(O)ccc4[C@H]3CC[C@@]21C [EE2, ethinyl estradiol]
total epithelial area of the glands (mammary gland): significantly increased
body weight or mammary epithelial development [1]: No significant differences
CYP1B1 expression in normal mammary glands (CYP1B1; F1-F3 generation offspring): up-regulated
expression levels of CYP1B1 (CYP1B1; F1 and F2 generations, vs control or HF offspring): significantly higher
CYP1B1 expression levels (CYP1B1; F3 generation, vs controls): higher than in the controls
cell proliferation by ki-67 (mammary glands; F1 generation): non-significantly increased
cell proliferation by ki-67 (mammary glands; F2 generation, compared to the controls): significantly lower
expression of miR-26a, miR-101, miR-148, miR-152, miR-194, miR-26a/b (miRNAs; mammary glands of rats exposed in utero): suppressed
expression of several miRNAs in the mammary gland (miRNAs; maternal exposure): permanent down-regulation
